Experimental data: patent US10300052B2, “Methods for increasing CFTR activity” (THE UAB RESEARCH FOUNDATION, priority 2012, dated 2019)

Columns and labels:
HBE cells = test: Airway surface liquid (ASL) depth measurement by confocal microscopy in HBE monolayers; type: cell-based, human; settings: ivacaftor 10 μM basolateral, 24 h, confocal (FIGS. 2A, 2B)
Description: White scale bars designate 10 μm.
Dotted line indicates ASL depth of a panel of CF HBE cells using the exact same method.
The apical surfaces of HBE cells were washed three times and then test compounds added to the basolateral compartment 24 h prior to labeling. Cells were stained with CMFDA (100 μM) in the cell culture medium for 1 hr. Texas red dye (25 μl at 2 mg/ml in Fc70) was added apically and cells allowed to equilibrate 2 h at 37° C. Transwell membranes were placed in sterile glass bottom dish coated with MEM, and imaged with a Carl Zeiss (Peabody, Mass.) confocal microscope using 20× (numerical aperture 0.88, working distance 0.55 mm) air objective lens. Cells were visualized with DIC optics to evaluate cell morphology before initiating fluorescence microscopy. Subsequently, Zscan confocal fluorescent microscopy images were acquired from the top of the ASL through the top of the cell surface. XZ scans were analyzed using Zen2008 software at four ROI per well each located 1 mm from the filter periphery and at each quadrant; 5 estimates of ASL depth were taken equally dispersed across each ROI (7, 9).

CFTR = target: T1, CFTR (Homo sapiens, UniProt P13569); test: Isc under voltage clamp in normal explanted human trachea; settings: ivacaftor 10 μM after amiloride 100 μM and forskolin 100 nM, voltage clamp (FIGS. 3A, 3B)
T1 construct: from tissue; host or cells: normal human trachea/bronchus from donor explant organs
T1 sequence (P13569 whole entry): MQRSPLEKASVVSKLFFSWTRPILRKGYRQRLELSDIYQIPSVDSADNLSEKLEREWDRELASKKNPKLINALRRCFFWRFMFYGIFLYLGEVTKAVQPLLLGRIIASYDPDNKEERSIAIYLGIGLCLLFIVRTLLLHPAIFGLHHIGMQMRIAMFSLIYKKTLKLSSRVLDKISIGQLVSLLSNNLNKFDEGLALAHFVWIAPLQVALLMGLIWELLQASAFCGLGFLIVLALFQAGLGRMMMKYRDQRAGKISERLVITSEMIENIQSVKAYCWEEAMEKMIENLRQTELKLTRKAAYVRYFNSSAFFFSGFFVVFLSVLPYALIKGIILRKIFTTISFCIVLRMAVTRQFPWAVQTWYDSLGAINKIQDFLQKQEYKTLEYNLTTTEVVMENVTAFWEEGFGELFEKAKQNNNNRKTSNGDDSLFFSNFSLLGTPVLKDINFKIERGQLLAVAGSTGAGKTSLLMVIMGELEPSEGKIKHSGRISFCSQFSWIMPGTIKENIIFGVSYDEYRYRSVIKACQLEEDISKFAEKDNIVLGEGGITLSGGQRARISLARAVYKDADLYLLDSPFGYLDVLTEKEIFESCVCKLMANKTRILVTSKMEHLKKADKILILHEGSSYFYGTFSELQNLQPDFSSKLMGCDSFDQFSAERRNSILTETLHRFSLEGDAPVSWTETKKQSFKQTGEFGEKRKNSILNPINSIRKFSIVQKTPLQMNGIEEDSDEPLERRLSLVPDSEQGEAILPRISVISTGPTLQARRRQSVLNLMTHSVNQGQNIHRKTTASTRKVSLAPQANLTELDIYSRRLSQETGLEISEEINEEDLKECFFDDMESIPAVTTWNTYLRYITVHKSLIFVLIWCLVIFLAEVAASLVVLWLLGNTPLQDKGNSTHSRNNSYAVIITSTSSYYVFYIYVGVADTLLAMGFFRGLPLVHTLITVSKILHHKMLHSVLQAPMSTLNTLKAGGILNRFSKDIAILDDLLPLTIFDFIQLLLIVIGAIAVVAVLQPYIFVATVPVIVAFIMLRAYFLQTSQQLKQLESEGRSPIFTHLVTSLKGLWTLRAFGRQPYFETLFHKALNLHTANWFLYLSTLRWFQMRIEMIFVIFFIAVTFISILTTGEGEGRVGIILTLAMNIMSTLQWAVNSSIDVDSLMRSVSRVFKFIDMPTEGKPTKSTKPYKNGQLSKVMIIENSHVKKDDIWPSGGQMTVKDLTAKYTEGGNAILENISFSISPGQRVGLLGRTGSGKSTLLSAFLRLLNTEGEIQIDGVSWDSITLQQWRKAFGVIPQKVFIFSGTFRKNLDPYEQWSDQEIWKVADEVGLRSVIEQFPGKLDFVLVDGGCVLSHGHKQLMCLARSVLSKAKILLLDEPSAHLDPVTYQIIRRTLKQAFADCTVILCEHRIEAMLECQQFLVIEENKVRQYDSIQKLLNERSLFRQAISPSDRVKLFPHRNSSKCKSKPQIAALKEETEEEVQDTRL
Description: Serial addition of amiloride (100 μM), forskolin (100 nM), and ivacaftor (VX-770; 10 μM) or vehicle control is shown, followed by addition of ATP (10 μM), and CFTR Inh-172 (10 μM×2) as control additions.
The change in Isc following addition of ivacaftor (VX-770) or vehicle control is shown. *P<0.05, n=19, 24 samples/condition.
Ivacaftor also potentiated CFTR-dependent current in normal explanted human trachea examined under voltage clamp conditions (FIGS. 3A and B).
Samples of human trachea tissue were obtained from normal donor explant organs not selected for lung transplantation. Lung, mainstem bronchi, and trachea were resected en-bloc, transferred on wet ice, and large airways excised. Airway tissues were then immersed in ice cold DMEM following resection for transfer, then allowed to equilibrate to room temperature prior to mOCT imaging.
Short-circuit current (Isc) was measured under voltage clamp conditions using MC8 voltage clamps and P2300 Ussing chambers (Physiologic Instruments, San Diego, Calif.) as previously described (2). Monolayers were initially bathed on both sides with identical Ringer's solutions containing (in mM) 115 NaCl, 25 NaHCO3, 2.4 KH2PO4, 1.24 K2HPO4, 1.2 CaCl2, 1.2 MgC2, 10 D-glucose (pH 7.4). […] A one-second three-mV pulse was imposed every 10 seconds to monitor resistance calculated using Ohm's law. […]

G551D-CFTR = G551D-CFTR (Homo sapiens, UniProt P13569, G551D); parameters: host or cells: CF patients carrying G551D-CFTR (endogenous protein); settings: CF patients with G551D-CFTR; reported; cited from earlier work
Sequence of G551D-CFTR (P13569 whole entry G551D): as the sequence (P13569 whole entry) above, with G551D counted along it

CC(C)(C)c1cc(C(C)(C)C)c(NC(=O)c2c[nH]c3ccccc3c2=O)cc1O [ivacaftor]
ASL depth (HBE cells): enhanced
CFTR-dependent current (CFTR): potentiated
measures of CFTR activity (G551D-CFTR): improved
pulmonary function (G551D-CFTR): enhanced
